Measurements from the supplement of paper PMC9005190.

How the values were obtained:
FP [1] = molecular target: FP (UniProt P43088); assay: pEC50 of agonist-induced pathway activation (ebBRET)
FP [2] = molecular target: FP (UniProt P43088); assay: Emax (maximal agonist-induced change in ebBRET relative to vehicle) (% of vehicle response (amplitude of change)); higher = larger response (for Gs, larger decrease in membrane ebBRET, i.e. stronger Gs activation)
HCA3 [3] = molecular target: HCA3 (UniProt P49019); assay: pEC50 of agonist-induced pathway activation (ebBRET)
HCA3 [4] = molecular target: HCA3 (UniProt P49019); assay: Emax (maximal agonist-induced change in ebBRET relative to vehicle) (% of vehicle response (amplitude of change)); higher = larger response (for Gs, larger decrease in membrane ebBRET, i.e. stronger Gs activation)
S1P1 [5] = molecular target: S1P1 (UniProt P21453); assay: pEC50 of agonist-induced pathway activation (ebBRET)
S1P1 [6] = molecular target: S1P1 (UniProt P21453); assay: Emax (maximal agonist-induced change in ebBRET relative to vehicle) (% of vehicle response (amplitude of change)); higher = larger response (for Gs, larger decrease in membrane ebBRET, i.e. stronger Gs activation)
CRFR2 [7] = molecular target: T1, CRFR2 (UniProt Q13324); assay: pEC50 of agonist-induced pathway activation (ebBRET)
T1 sequence (whole entry): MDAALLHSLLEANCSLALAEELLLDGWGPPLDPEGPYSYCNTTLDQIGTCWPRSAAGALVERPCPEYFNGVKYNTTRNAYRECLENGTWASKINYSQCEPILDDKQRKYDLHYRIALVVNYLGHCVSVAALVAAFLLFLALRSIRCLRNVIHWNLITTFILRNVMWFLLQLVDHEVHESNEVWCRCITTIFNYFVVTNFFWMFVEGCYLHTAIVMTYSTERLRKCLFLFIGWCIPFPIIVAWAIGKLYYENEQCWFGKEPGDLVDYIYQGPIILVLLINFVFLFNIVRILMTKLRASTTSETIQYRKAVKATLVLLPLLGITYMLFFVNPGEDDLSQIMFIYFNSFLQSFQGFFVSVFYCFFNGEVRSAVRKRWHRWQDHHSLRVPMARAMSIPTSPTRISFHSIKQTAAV

CRFR2 [8] = molecular target: T1, CRFR2; assay: Emax (maximal agonist-induced change in ebBRET relative to vehicle) (% of vehicle response (amplitude of change)); higher = larger response (for Gs, larger decrease in membrane ebBRET, i.e. stronger Gs activation)
LPA1 = LPA1 (UniProt Q92633); assay: pEC50 of agonist-induced pathway activation (ebBRET)
Chain of LPA1 (Q92633 whole entry): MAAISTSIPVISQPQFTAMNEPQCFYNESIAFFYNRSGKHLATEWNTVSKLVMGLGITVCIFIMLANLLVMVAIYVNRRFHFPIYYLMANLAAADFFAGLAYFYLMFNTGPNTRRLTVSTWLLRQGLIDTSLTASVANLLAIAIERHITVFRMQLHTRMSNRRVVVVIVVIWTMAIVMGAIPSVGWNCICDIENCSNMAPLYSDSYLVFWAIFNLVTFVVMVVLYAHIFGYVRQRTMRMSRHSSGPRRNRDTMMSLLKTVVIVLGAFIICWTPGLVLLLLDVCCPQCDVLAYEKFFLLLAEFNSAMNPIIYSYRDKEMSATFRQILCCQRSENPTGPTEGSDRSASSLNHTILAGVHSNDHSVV

Chain of HCA3 (P49019 whole entry): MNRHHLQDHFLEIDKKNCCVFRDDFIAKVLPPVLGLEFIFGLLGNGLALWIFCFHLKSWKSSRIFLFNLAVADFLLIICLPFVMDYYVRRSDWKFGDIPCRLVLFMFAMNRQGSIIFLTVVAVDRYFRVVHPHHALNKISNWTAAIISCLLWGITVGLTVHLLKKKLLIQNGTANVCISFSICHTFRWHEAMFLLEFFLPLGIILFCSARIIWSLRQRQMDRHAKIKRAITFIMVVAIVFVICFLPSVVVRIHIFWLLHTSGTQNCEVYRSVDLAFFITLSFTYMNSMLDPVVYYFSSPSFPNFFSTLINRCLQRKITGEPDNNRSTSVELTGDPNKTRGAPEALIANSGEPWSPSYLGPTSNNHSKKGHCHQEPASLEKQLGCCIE
Chain of FP (P43088 whole entry): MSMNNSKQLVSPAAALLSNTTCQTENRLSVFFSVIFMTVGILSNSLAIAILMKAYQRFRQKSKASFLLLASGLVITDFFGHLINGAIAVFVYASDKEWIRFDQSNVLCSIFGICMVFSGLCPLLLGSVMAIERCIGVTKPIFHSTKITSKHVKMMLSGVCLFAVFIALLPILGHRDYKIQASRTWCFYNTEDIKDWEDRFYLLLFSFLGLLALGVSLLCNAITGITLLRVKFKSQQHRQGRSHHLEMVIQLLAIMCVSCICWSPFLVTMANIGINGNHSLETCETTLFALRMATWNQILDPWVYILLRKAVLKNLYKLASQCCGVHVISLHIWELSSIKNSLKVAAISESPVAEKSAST
Chain of S1P1 (P21453 whole entry): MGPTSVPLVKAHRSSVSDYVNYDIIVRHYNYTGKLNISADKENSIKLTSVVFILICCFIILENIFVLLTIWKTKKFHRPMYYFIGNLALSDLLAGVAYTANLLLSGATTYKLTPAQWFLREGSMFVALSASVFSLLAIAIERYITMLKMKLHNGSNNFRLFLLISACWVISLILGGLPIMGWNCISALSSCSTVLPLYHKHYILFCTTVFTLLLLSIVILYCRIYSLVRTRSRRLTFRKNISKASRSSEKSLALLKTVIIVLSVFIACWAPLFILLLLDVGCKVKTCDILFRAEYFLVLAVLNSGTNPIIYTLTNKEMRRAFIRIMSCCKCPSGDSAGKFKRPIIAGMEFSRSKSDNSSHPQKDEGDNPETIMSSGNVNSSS

CCCCC[C@H](O)/C=C/[C@H]1C(=O)C[C@H](O)[C@@H]1C/C=C\CCCC(=O)O [PGD2]
Conditions | Emax, FP [2] | pEC50, FP [1]
pathway (G protein / arrestin sensor): G11 | 459 | 8.66
pathway (G protein / arrestin sensor): G12 | 104 | 8.38
pathway (G protein / arrestin sensor): G13 | 183 | 8.78
pathway (G protein / arrestin sensor): G14 | 578 | 8.17
pathway (G protein / arrestin sensor): G15 | 437 | 8.88
pathway (G protein / arrestin sensor): GoA | 84.8 | 6.92
pathway (G protein / arrestin sensor): GoB | 114 | 6.99
pathway (G protein / arrestin sensor): Gq | 306 | 8.73
pathway (G protein / arrestin sensor): Gz | 122 | 7.46

CCCCCC(O)CC(=O)O (stereo unspecified) [3-HOA]
Conditions | Emax, HCA3 [4] | pEC50, HCA3 [3]
pathway (G protein / arrestin sensor): G13 | 97.9 | 4.08
pathway (G protein / arrestin sensor): Gi1 | 415 | 5.63
pathway (G protein / arrestin sensor): Gi2 | 190 | 5.71
pathway (G protein / arrestin sensor): GoA | 187 | 5.5
pathway (G protein / arrestin sensor): GoB | 317 | 5.45
pathway (G protein / arrestin sensor): Gz | 178 | 5.25
pathway (G protein / arrestin sensor): βarr1/GRK2 | 605 | 3.49
pathway (G protein / arrestin sensor): βarr2 | 115 | 3.52
pathway (G protein / arrestin sensor): βarr2/GRK2 | 487 | 3.47

CCCCCCCCCCCCC/C=C/[C@@H](O)[C@@H](N)COP(=O)(O)O [Sphingosine 1-phosphate]
Conditions | Emax, S1P1 [6] | pEC50, S1P1 [5]
pathway (G protein / arrestin sensor): G12 | 92 | 7.18
pathway (G protein / arrestin sensor): G13 | 175 | 6.86
pathway (G protein / arrestin sensor): G15 | 375 | 6.21
pathway (G protein / arrestin sensor): Gi1 | 132 | 8.15
pathway (G protein / arrestin sensor): Gi2 | 99.8 | 7.95
pathway (G protein / arrestin sensor): GoA | 68.5 | 7.75
pathway (G protein / arrestin sensor): GoB | 59.2 | 8.16
pathway (G protein / arrestin sensor): βarr1/GRK2 | 477 | 7.27
pathway (G protein / arrestin sensor): βarr2 | 227 | 6.83
pathway (G protein / arrestin sensor): βarr2/GRK2 | 557 | 7.46

CC[C@H](C)[C@H](N)C(=O)N[C@H](C(=O)N[C@@H](CC(C)C)C(=O)N[C@@H](CO)C(=O)N[C@@H](CC(C)C)C(=O)N[C@@H](CC(=O)O)C(=O)N[C@H](C(=O)N1CCC[C@H]1C(=O)N[C@H](C(=O)NCC(=O)N[C@@H](CC(C)C)C(=O)N[C@@H](CC(C)C)C(=O)N[C@@H](CCC(N)=O)C(=O)N[C@H](C(=O)N[C@@H](CC(C)C)C(=O)N[C@@H](CC(C)C)C(=O)N[C@@H](CCC(=O)O)C(=O)N[C@@H](CCC(N)=O)C(=O)N[C@@H](C)C(=O)N[C@@H](CCCNC(=N)N)C(=O)N[C@@H](C)C(=O)N[C@@H](CCCNC(=N)N)C(=O)N[C@@H](C)C(=O)N[C@@H](C)C(=O)N[C@@H](CCCNC(=N)N)C(=O)N[C@@H](CCC(=O)O)C(=O)N[C@@H](CCC(N)=O)C(=O)N[C@@H](C)C(=O)N[C@H](C(=O)N[C@H](C(=O)N[C@@H](CC(N)=O)C(=O)N[C@@H](C)C(=O)N[C@@H](CCCNC(=N)N)C(=O)N[C@H](C(=O)N[C@@H](CC(C)C)C(=O)N[C@@H](C)C(=O)N[C@@H](CCCNC(=N)N)C(=O)N[C@H](C(=O)NCC(=O)N[C@@H](Cc1cnc[nH]1)C(=O)N[C@@H](CS)C(N)=O)C(C)C)[C@@H](C)CC)[C@@H](C)O)[C@@H](C)O)[C@@H](C)CC)[C@@H](C)CC)C(C)C)C(C)C [Urocortin II]
Conditions | Emax, CRFR2 [8] | pEC50, CRFR2 [7]
pathway (G protein / arrestin sensor): G15 | 725 | 8.77
pathway (G protein / arrestin sensor): Gi1 | 442 | 8.2
pathway (G protein / arrestin sensor): Gi2 | 206 | 8.28
pathway (G protein / arrestin sensor): GoA | 159 | 8.33
pathway (G protein / arrestin sensor): GoB | 263 | 8.37
pathway (G protein / arrestin sensor): Gs | 57.3 | 10.3
pathway (G protein / arrestin sensor): Gz | 72.8 | 8.2
pathway (G protein / arrestin sensor): βarr1/GRK2 | 1420 | 8.08
pathway (G protein / arrestin sensor): βarr2 | 1090 | 7.98
pathway (G protein / arrestin sensor): βarr2/GRK2 | 1440 | 8.16

CCCCCCCC/C=C\CCCCCCCC(=O)OCC(O)COP(=O)(O)O (stereo unspecified) [O-LPA]
LPA1
Conditions | pEC50
pathway (G protein / arrestin sensor): G11 | 6.92
pathway (G protein / arrestin sensor): G13 | 8.35
pathway (G protein / arrestin sensor): G14 | 5.63
pathway (G protein / arrestin sensor): G15 | 6.31
pathway (G protein / arrestin sensor): Gi1 | 9.2
pathway (G protein / arrestin sensor): GoA | 8.89
pathway (G protein / arrestin sensor): Gq | 7.51
pathway (G protein / arrestin sensor): βarr1/GRK2 | 7.53
pathway (G protein / arrestin sensor): βarr2 | 6.58
pathway (G protein / arrestin sensor): βarr2/GRK2 | 7.46
